The values that follow come from ChEMBL document CHEMBL1781922, “Synthesis, biological evaluation, and molecular docking study of 3-(3'-heteroatom substituted-2'-hydroxy-1'-propyloxy) xanthone analogues as novel topoisomerase IIα catalytic inhibitor” (Eur J Med Chem, 2011).

One assay deals with HL-60. As to the kind of experiment: Cytotoxicity against human HL60 cells after 2 days. The assay is classed as functional, cell-based. The following applies: HL-60, 48 h.
For another assay, the system named is DU-145. In words: Cytotoxicity against human DU145 cells after 2 days. Format: functional, cell-based. The following applies: DU-145, 48 h.
Another assay concerns HCT-116. In words: Cytotoxicity against human HCT116 cells after 2 days. Format: functional, cell-based. The following applies: HCT-116, 48 h.
In another assay the test system is MDA-MB-231. As to the kind of experiment: Cytotoxicity against human MDA-MB-231 cells after 2 days. The following applies: MDA-MB-231, 48 h.
Assay [1] addresses DNA topoisomerase 2-alpha (Homo sapiens) (UniProt P11388). In words: Inhibition of human topoisomerase 2alpha-mediated relaxation of supercoiled pBR322 DNA at 100 uM after 30 mins using ethidium bromide staining by transillumination analysis.
Assay [2] has the same target. In words: Inhibition of human topoisomerase 2alpha-mediated relaxation of supercoiled pBR322 DNA at 20 uM after 30 mins using ethidium bromide staining by transillumination analysis.
For assay [3] the target is unchanged. In words: Inhibition of human topoisomerase 2alpha-mediated relaxation of supercoiled pBR322 DNA at 10 uM after 30 mins using ethidium bromide staining by transillumination analysis.
The target of assay [4] is T1, DNA topoisomerase 1 (Homo sapiens) (UniProt P11387).
T1 sequence (whole entry): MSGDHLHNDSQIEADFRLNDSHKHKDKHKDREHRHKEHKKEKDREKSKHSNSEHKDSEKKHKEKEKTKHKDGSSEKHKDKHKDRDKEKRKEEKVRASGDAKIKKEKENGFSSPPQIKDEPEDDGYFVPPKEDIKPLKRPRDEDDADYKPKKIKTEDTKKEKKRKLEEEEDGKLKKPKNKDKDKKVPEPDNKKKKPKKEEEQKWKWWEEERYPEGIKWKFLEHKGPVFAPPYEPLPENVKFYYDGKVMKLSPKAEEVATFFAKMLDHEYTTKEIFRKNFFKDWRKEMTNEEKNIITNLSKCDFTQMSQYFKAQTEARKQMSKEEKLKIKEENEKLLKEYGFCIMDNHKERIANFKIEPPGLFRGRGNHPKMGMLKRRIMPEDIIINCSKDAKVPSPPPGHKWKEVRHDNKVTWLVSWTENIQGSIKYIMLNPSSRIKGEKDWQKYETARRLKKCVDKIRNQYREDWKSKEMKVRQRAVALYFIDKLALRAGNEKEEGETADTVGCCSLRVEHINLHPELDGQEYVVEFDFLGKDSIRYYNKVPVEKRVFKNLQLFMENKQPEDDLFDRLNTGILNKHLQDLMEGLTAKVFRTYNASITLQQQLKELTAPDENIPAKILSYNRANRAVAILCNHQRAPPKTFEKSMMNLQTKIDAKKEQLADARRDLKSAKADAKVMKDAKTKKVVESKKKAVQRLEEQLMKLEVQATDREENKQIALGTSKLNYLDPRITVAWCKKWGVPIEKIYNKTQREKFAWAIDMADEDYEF
In words: Inhibition of human recombinant topoisomerase 1-mediated relaxation of supercoiled pBR322 DNA at 20 uM after 30 mins using ethidium bromide staining by transillumination analysis.

The subject of another assay is HeLa. In words: Cytotoxicity against human HeLa cells after 2 days. The following applies: 48 h.
The target of assay [5] is DNA topoisomerase 2-alpha (Homo sapiens) (UniProt P11388). As to the kind of experiment: Inhibition of human topoisomerase 2alpha-mediated ATP hydrolysis at 400 uM after 30 mins by malachite green ATPase assay.
Assay [6] shares this target. As to the kind of experiment: Inhibition of human topoisomerase 2alpha-mediated relaxation of pUC18 DNA at 400 uM after 30 mins by malachite green ATPase assay in presence of 1 to 4 mM of ATP.

Structures can show the parent of a compound that is named as a salt. The source made the active and inactive calls. No cut-off for these calls is given here.

Chain of DNA topoisomerase 2-alpha (Homo sapiens) (P11388 whole entry): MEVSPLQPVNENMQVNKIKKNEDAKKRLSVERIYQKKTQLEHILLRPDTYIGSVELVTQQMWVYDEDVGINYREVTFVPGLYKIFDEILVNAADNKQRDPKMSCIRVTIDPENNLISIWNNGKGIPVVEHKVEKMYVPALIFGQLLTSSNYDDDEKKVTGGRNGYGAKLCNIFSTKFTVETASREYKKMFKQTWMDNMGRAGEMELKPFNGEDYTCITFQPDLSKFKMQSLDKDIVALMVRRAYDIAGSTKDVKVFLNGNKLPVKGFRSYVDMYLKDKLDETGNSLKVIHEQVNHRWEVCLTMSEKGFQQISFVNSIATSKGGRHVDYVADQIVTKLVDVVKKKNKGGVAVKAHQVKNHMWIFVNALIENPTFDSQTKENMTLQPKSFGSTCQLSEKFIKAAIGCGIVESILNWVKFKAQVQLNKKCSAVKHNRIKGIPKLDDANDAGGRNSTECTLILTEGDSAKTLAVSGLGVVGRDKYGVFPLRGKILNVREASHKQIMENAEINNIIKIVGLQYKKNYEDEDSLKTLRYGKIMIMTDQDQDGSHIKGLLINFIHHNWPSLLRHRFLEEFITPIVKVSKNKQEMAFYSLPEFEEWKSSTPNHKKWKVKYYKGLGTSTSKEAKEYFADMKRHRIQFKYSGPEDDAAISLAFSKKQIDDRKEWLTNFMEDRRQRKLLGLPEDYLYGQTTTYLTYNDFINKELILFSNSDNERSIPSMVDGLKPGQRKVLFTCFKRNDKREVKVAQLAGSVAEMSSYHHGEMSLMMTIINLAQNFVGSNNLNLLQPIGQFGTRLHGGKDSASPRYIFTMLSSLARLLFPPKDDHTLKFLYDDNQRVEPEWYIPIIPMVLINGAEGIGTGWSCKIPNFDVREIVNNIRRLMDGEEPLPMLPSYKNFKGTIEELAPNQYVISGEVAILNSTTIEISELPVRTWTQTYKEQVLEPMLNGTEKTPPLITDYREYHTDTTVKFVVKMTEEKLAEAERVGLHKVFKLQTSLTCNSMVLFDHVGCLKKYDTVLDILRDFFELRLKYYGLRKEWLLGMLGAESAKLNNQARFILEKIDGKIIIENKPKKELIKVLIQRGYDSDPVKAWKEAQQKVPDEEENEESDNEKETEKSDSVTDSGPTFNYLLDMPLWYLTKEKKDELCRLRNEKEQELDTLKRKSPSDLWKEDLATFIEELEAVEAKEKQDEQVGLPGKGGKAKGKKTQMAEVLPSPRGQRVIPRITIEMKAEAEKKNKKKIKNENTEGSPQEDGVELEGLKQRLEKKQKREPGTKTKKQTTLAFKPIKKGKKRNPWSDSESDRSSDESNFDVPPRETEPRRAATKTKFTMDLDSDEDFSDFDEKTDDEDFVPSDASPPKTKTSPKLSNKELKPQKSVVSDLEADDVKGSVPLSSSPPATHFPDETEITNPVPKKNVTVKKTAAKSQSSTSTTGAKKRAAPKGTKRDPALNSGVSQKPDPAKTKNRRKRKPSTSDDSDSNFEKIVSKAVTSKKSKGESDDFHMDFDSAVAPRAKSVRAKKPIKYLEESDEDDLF

One may read the IC50 as the midpoint of a concentration-inhibition curve. Higher therefore signals lower potency. Take `COc1cccc2c1C(=O)c1c(O)c3c(c(O)c1C2=O)C[C@@](O)(C(=O)CO)C[C@@H]3O[C@H]1C[C@H](N)[C@H](O)[C@H](C)O1` [DOXORUBICIN HYDROCHLORIDE]: the values for the IC50 in the assay with HL-60, in the assay on DU-145 and in the assay with HCT-116 were 0.32 µM, 2470 nM and 6.81 µM, respectively.

On to `CC[C@@]1(O)C(=O)OCc2c1cc1n(c2=O)Cc2cc3ccccc3nc2-1` [CAMPTOTHECIN], for which the IC50 in the assay with MDA-MB-231 came to 0.97 µM; in the assay with DU-145 it was 310 nM; in the assay with HCT-116 it was 3.97 µM.

In general, inhibition refers to the drop in the measured response relative to a control, in per cent. With `O=c1c2ccccc2oc2cc(OCC(O)COCCO)cc(O)c12` (centres undefined), the inhibition in assay [1] turned out to be 89.2%; in assay [2], 43.7%; in assay [3], 23.4%; in [4] it was 0%. For the same compound, the IC50 with HL-60 worked out at 16.6 µM; in the assay on MDA-MB-231, 10.4 µM; with HeLa, 15.4 µM; in the assay with DU-145, 15600 nM; in the assay with HCT-116, 46.7 µM.

In the case of `O=c1c2ccccc2oc2cc(OCC(O)CSCCO)cc(O)c12` (centres undefined), the inhibition was 63.8% in assay [1], 49.1% in [2], 26.3% in [3] and 0% in assay [4]. The IC50 was found to be 19.9 µM in the assay on HL-60; 5.13 µM with MDA-MB-231; 9.15 µM in the assay on HeLa; 3470 nM in the assay on DU-145; 23.9 µM in the assay with HCT-116.

`O=c1c2ccccc2oc2cc(OCC(O)CNCCCO)cc(O)c12` (centres undefined): the inhibition in [1] came to 100%; in assay [2], 62.8%; in assay [3], 38.7%; in assay [4] it was 3.45%. The IC50 in the assay with HL-60 came to 8.87 µM; in the assay with MDA-MB-231, 6.97 µM; with HeLa, 19.2 µM; in the assay on DU-145, 1600 nM; in the assay with HCT-116 it was 31.3 µM.

For the compound `COc1cc([C@@H]2c3cc4c(cc3[C@@H](O[C@@H]3O[C@@H]5CO[C@@H](C)O[C@H]5[C@H](O)[C@H]3O)[C@H]3COC(=O)[C@H]23)OCO4)cc(OC)c1O` [ETOPOSIDE], the results for the inhibition in [1] and in [3] were 77.1% and 26%, respectively. Also, the IC50 with HL-60 stood at 1.28 µM; in the assay with MDA-MB-231 it was 1.23 µM; in the assay on HeLa it was 2.36 µM; in the assay on DU-145 it was 2190 nM; in the assay on HCT-116, 9.5 µM.

On to `O=c1c2ccccc2oc2cc(OCC(O)CNCCO)cc(O)c12` (centres undefined), for which the inhibition turned out to be 100% in assay [1], 70.3% in assay [2], 35.5% in assay [3] and 1.08% in assay [4]. Moreover, the IC50 turned out to be 9.87 µM in the assay on HL-60; 3.55 µM with MDA-MB-231; 8.43 µM in the assay on HeLa; 4030 nM in the assay on DU-145; 20 µM in the assay on HCT-116.

On to `CCCNCC(O)COc1cc(O)c2c(=O)c3ccccc3oc2c1` (centres undefined), for which the inhibition in assay [1] worked out at 100%; in assay [2], 70%; in assay [3] it was 41.2%; in assay [4], 0%; in [5], 28.5%. Further, the IC50 was 4.15 µM with HL-60; 4.11 µM in the assay with MDA-MB-231; 11.6 µM with HeLa; 760 nM in the assay on DU-145; 23.7 µM in the assay with HCT-116. In addition, the inhibition result in assay [6] was “inactive”.

As for `O=c1c2ccccc2oc2cc(OCC(O)CN(CCO)CCO)cc(O)c12` (centres undefined), the inhibition came to 100% in assay [1], 45.8% in [2], 17.4% in assay [3] and 0% in [4]. Besides, the IC50 with HL-60 came out at 15.9 µM; with MDA-MB-231, 14.9 µM; in the assay on HeLa it was 15.2 µM; in the assay with DU-145, 1590 nM; with HCT-116 it was 56.7 µM.

Turning to `CO[C@@H]1[C@@H](OC(N)=O)[C@@H](O)[C@H](Oc2ccc3c(O)c(NC(=O)c4ccc(O)c(CC=C(C)C)c4)c(=O)oc3c2C)OC1(C)C`, the inhibition in assay [5] came out at 60.4%.

`O=c1c2ccccc2oc2cc(OCC(O)CSCCCO)cc(O)c12` (centres undefined): the inhibition in assay [1] was 68%; in [2], 26.1%; in [3], 17.5%; in [4] it was 0%. The IC50 with HL-60 is 27.8 µM; with MDA-MB-231, 8.4 µM; in the assay on HeLa, 12.3 µM; in the assay with DU-145, 40900 nM; in the assay on HCT-116, more than 100 µM.
